Reference: patent US10364222B2, “Cyclic amine derivative and medical use thereof” (Toray Industries, Inc., priority 2016, dated 2019)

Experiments:
[1] = system: IL-17 production in mouse splenocytes; test: Suppressive effect on IL-17 production by IL-23 stimulation in mouse splenocytes; assay type: cell-based; details: Splenocyte, 72 h, at 5 μmol/L of the test compound, 10 ng/mL human IL-23, 3 days, read-out: IL-17 production inhibition rate (%)
In short: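 Splenocytes from male C57BL/6J mice (3×10^5/well, with 100 U/mL human IL-2) stimulated with 10 ng/mL human IL-23 plus compound (0.1% DMSO) for 3 days at 37 °C. Supernatant IL-17 measured by ELISA; inhibition calculated against unstimulated and IL-23-only wells.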

[2] = system: oxazolone-induced mouse atopic dermatitis model; test: Oxazolone-induced mouse atopic dermatitis model; assay type: in vivo; details: BALB/c mice; 10 mg/kg orally once daily for 15 days from the sensitization day; vs vehicle, Student's t-test P<0.05
Description: Using increase in the ear thickness as an index of exacerbation of symptoms, the effect of the cyclic amine derivative (I) or a pharmacologically acceptable salt thereof in an oxazolone-induced mouse atopic dermatitis model was evaluated. The oxazolone-induced mouse atopic dermatitis model was prepared by a partially modified method by Nakajima et al. (Journal of Investigative Dermatology, 2014, Vol. 134, p. 2122-2130).
BALB/c mice (female, 7 weeks old) (Charles River Laboratories Japan, Inc.) were used at 8 or 9 weeks old after preliminary breeding. To the back of the mice, 25 μL of a 3 w/v % oxazolone solution dissolved in ethanol was applied to sensitize the mice. Every other day from 5 days to 13 days after the sensitization, 10 μL each of a 0.6 w/v % oxazolone solution dissolved in ethanol was applied to both sides of the right auricle of the sensitized mice to induce inflammation.
The test compound at a dose of 10 mg/kg was administered to the mice once daily for 15 days from the sensitization day to 14 days after sensitization. As the test compound, the compound of Example 20, the compound of Example 29, and the compound of Example 57 were used. The compound of Example 20, the compound of Example 29, and the compound of Example 57 were suspended in a 0.5 w/v % methylcellulose solution and orally administered. The group in which the compound of Example 20 was administered to mice was defined as the Example-20 compound administration group, the group in which the compound of Example 29 was administered was defined as the Example-29 compound administration group, and the group in which the compound of Example 57 was administered was defined as the Example-57 compound administration group. In the vehicle administration group, a vehicle of each test compound (0.5 w/v % methylcellulose solution) was similarly administered.
The right ear thickness before application of the oxazolone solution (before sensitization) on the sensitization day and the right ear thickness on the next day of final induction were measured with a digital micrometer (Mitutoyo Corporation). […]

| SMILES | inhibition at 5 µM [1] [%] | change in the ear thickness (right ear, next day of final induction − before sensitization) [2] |
| --- | --- | --- |
| O=C(Nc1ccc(-c2ccccc2OC(F)(F)F)c(Cl)c1)[C@H]1CCCCN1C(=O)Cn1cnnn1 [Example 57, (R)-1-(2-(1H-tetrazol-1-yl)acetyl)-N-(2-chloro-2′-(trifluoromethoxy)-[1,1′-biphenyl]-4-yl)piperidine-2-carboxamide] | 101 | statistically significantly suppressed |
| CN(CC(=O)N1CCCC[C@@H]1C(=O)Nc1ccc(-c2ccccc2OC(F)(F)F)c(Cl)c1)S(C)(=O)=O [Example 29, (R)-N-(2-chloro-2′-(trifluoromethoxy)-[1,1′-biphenyl]-4-yl)-1-(2-(N-methylmethylsulfonamide)acetyl)piperidine-2-carboxamide] | 100 | statistically significantly suppressed |
| CC(=O)N1CCCC[C@@H]1C(=O)Nc1ccc(-c2ccccc2OC(F)(F)F)c(Cl)c1 [Example 20, (R)-1-acetyl-N-(2-chloro-2′-(trifluoromethoxy)-[1,1′-biphenyl]-4-yl)piperidine-2-carboxamide] | 99.7 | statistically significantly suppressed |
